The values that follow are results of earlier work, collected in patent US9468626B2, “Melatonin-based formulations for parenteral administration” (CHIESI FARMACEUTICI S.p.A., priority 2014, dated 2016).

The conditions of data set [1]: in vivo.
A further data set has as its system newborn piglets. Conditions: intravenously, 5 mg/kg/h.
For data set [2] the following is noted: exposed to light or oxygen.

Regarding `COc1ccc2[nH]cc(CCNC(C)=O)c2c1` [melatonin, N-[2-(5-Methoxy-1H-indol-3-yl)ethyl]acetamide], the solubility in water result is “poorly soluble in water”. The oral bioavailability entry in data set [1] is “low and very variable”. Moreover, the hypothermic neuroprotection result in the data set with newborn piglets is “increases hypothermic neuroprotection”. The “stability in aqueous solution” value in data set [2] is on record as “not stable when exposed to light or oxygen”.
